In PubChem BioAssay (NCI):
Several values for one entry are separate records, joined by “and”; a condition that tells them apart may be missing. Equal entries are not always repeated.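 A five-concentration, 48-hour dose response in 96-well plates underlies each endpoint, interpolated linearly between surrounding concentrations. GI50 is the concentration that inhibits growth by half. TGI marks complete inhibition of growth.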

Key:
Test in all cases: growth of human tumour cells (NCI), 48 h
MDA-MB-231 breast = tested on: MDA-MB-231 breast
M14 melanoma = tested on: M14 melanoma
HCT-15 colon = tested on: HCT-15 colon
SNB-19 CNS = tested on: SNB-19 CNS
BT-549 breast = tested on: BT-549 breast
CAKI-1 renal = tested on: CAKI-1 renal
SK-MEL-28 melanoma = tested on: SK-MEL-28 melanoma
T-47D breast = tested on: T-47D breast
A549 NSCLC = tested on: A549 NSCLC
PC-3 prostate = tested on: PC-3 prostate
K-562 leukemia = tested on: K-562 leukemia
NCI-H460 lung = tested on: NCI-H460 lung
HL-60(TB) leukemia = tested on: HL-60(TB) leukemia
U251 CNS = tested on: U251 CNS
MCF7 breast = tested on: MCF7 breast
CCRF-CEM leukemia = tested on: CCRF-CEM leukemia
A498 renal = tested on: A498 renal
ACHN renal = tested on: ACHN renal
HS 578T breast = tested on: HS 578T breast
SN12C renal = tested on: SN12C renal
SK-MEL-5 melanoma = tested on: SK-MEL-5 melanoma
SW-620 colon = tested on: SW-620 colon
MALME-3M melanoma = tested on: MALME-3M melanoma
LOX IMVI melanoma = tested on: LOX IMVI melanoma
SR leukemia = tested on: SR leukemia
NCI-H226 lung = tested on: NCI-H226 lung
OVCAR-8 ovarian = tested on: OVCAR-8 ovarian
SF-295 CNS = tested on: SF-295 CNS
RXF 393 renal = tested on: RXF 393 renal
UO-31 renal = tested on: UO-31 renal
HCC-2998 colon = tested on: HCC-2998 colon
NCI-H522 lung = tested on: NCI-H522 lung
SF-539 CNS = tested on: SF-539 CNS
UACC-257 melanoma = tested on: UACC-257 melanoma
786-0 renal = tested on: 786-0 renal
HOP-92 NSCLC = tested on: HOP-92 NSCLC
IGROV1 ovarian = tested on: IGROV1 ovarian
UACC-62 melanoma = tested on: UACC-62 melanoma
HOP-62 NSCLC = tested on: HOP-62 NSCLC
NCI/ADR-RES ovarian = tested on: NCI/ADR-RES ovarian
OVCAR-4 ovarian = tested on: OVCAR-4 ovarian
OVCAR-5 ovarian = tested on: OVCAR-5 ovarian
EKVX NSCLC = tested on: EKVX NSCLC
HCT-116 colon = tested on: HCT-116 colon
COLO 205 colon = tested on: COLO 205 colon
SK-MEL-2 melanoma = tested on: SK-MEL-2 melanoma
MOLT-4 leukemia = tested on: MOLT-4 leukemia
RPMI-8226 leukemia = tested on: RPMI-8226 leukemia
SNB-75 CNS = tested on: SNB-75 CNS
SK-OV-3 ovarian = tested on: SK-OV-3 ovarian
TK-10 renal = tested on: TK-10 renal
NCI-H23 lung = tested on: NCI-H23 lung
HT29 colon = tested on: HT29 colon
MDA-MB-435 = tested on: MDA-MB-435
SF-268 CNS = tested on: SF-268 CNS
DU-145 prostate = tested on: DU-145 prostate

COc1cc(C)c(-c2ccc(=O)c(OC)cc2C)c(OC)c1OC
GI50 (MDA-MB-231 breast): > 100 µM and 23.5 µM | TGI (MDA-MB-231 breast): > 100 µM | GI50 (M14 melanoma): > 100 µM and 17.3 µM | TGI (M14 melanoma): > 100 µM | GI50 (HCT-15 colon): > 100 µM and 12.9 µM | TGI (HCT-15 colon): > 100 µM | GI50 (SNB-19 CNS): > 100 µM and 29.3 µM | TGI (SNB-19 CNS): > 100 µM | GI50 (BT-549 breast): > 100 µM and 15.2 µM | TGI (BT-549 breast): > 100 µM | GI50 (CAKI-1 renal): > 100 µM and 19.5 µM | TGI (CAKI-1 renal): > 100 µM | GI50 (SK-MEL-28 melanoma): > 100 µM | TGI (SK-MEL-28 melanoma): > 100 µM | GI50 (T-47D breast): > 100 µM and 26.3 µM | TGI (T-47D breast): > 100 µM | GI50 (A549 NSCLC): > 100 µM and 35.5 µM | TGI (A549 NSCLC): > 100 µM | GI50 (PC-3 prostate): > 100 µM and 31.9 µM | TGI (PC-3 prostate): > 100 µM | TGI (K-562 leukemia): > 100 µM | GI50 (NCI-H460 lung): > 100 µM and 31.7 µM | TGI (NCI-H460 lung): > 100 µM | GI50 (HL-60(TB) leukemia): > 100 µM and 21 µM | TGI (HL-60(TB) leukemia): > 100 µM and 94.6 µM | GI50 (U251 CNS): > 100 µM and 30.9 µM | TGI (U251 CNS): > 100 µM | GI50 (MCF7 breast): > 100 µM and 25.3 µM | TGI (MCF7 breast): > 100 µM | GI50 (CCRF-CEM leukemia): > 100 µM and 29.7 µM | TGI (CCRF-CEM leukemia): > 100 µM | GI50 (A498 renal): > 100 µM and 14 µM | TGI (A498 renal): > 100 µM and 52.5 µM | GI50 (ACHN renal): > 100 µM and 85.1 µM | TGI (ACHN renal): > 100 µM | GI50 (HS 578T breast): > 100 µM and 15.9 µM | TGI (HS 578T breast): > 100 µM and 64.1 µM | GI50 (SN12C renal): > 100 µM and 38 µM | TGI (SN12C renal): > 100 µM | GI50 (SK-MEL-5 melanoma): > 100 µM and 46.1 µM | TGI (SK-MEL-5 melanoma): > 100 µM | GI50 (SW-620 colon): > 100 µM and 27.9 µM | TGI (SW-620 colon): > 100 µM | GI50 (MALME-3M melanoma): > 100 µM and 37.8 µM | TGI (MALME-3M melanoma): > 100 µM | TGI (LOX IMVI melanoma): > 100 µM | TGI (SR leukemia): > 100 µM | GI50 (NCI-H226 lung): > 100 µM and 86.5 µM | TGI (NCI-H226 lung): > 100 µM | GI50 (OVCAR-8 ovarian): > 100 µM and 35.3 µM | TGI (OVCAR-8 ovarian): > 100 µM | GI50 (SF-295 CNS): > 100 µM and 22.9 µM | TGI (SF-295 CNS): > 100 µM | GI50 (RXF 393 renal): > 100 µM and 21.1 µM | TGI (RXF 393 renal): > 100 µM and 76.5 µM | GI50 (UO-31 renal): > 100 µM and 45.4 µM | TGI (UO-31 renal): > 100 µM | GI50 (HCC-2998 colon): > 100 µM and 33 µM | TGI (HCC-2998 colon): > 100 µM | GI50 (NCI-H522 lung): > 100 µM and 20.2 µM | TGI (NCI-H522 lung): > 100 µM and 70.1 µM | GI50 (SF-539 CNS): > 100 µM and 25.8 µM | TGI (SF-539 CNS): > 100 µM | GI50 (UACC-257 melanoma): > 100 µM and 71.3 µM | TGI (UACC-257 melanoma): > 100 µM | GI50 (786-0 renal): > 100 µM and 46.2 µM | TGI (786-0 renal): > 100 µM | GI50 (HOP-92 NSCLC): > 100 µM and 10.2 µM | TGI (HOP-92 NSCLC): > 100 µM | GI50 (IGROV1 ovarian): > 100 µM and 47.3 µM | TGI (IGROV1 ovarian): > 100 µM | GI50 (UACC-62 melanoma): > 100 µM and 16.6 µM | TGI (UACC-62 melanoma): > 100 µM | GI50 (HOP-62 NSCLC): > 100 µM and 34.3 µM | TGI (HOP-62 NSCLC): > 100 µM | GI50 (NCI/ADR-RES ovarian): > 100 µM and 27.9 µM | TGI (NCI/ADR-RES ovarian): > 100 µM | GI50 (OVCAR-4 ovarian): > 100 µM and 92.2 µM | TGI (OVCAR-4 ovarian): > 100 µM | GI50 (OVCAR-5 ovarian): > 100 µM and 41.8 µM | TGI (OVCAR-5 ovarian): > 100 µM | GI50 (EKVX NSCLC): > 100 µM and 66.5 µM | TGI (EKVX NSCLC): > 100 µM | GI50 (HCT-116 colon): > 100 µM and 25 µM | TGI (HCT-116 colon): > 100 µM | GI50 (COLO 205 colon): > 100 µM and 21.8 µM | TGI (COLO 205 colon): > 100 µM and 58.6 µM | GI50 (SK-MEL-2 melanoma): > 100 µM and 20.5 µM | TGI (SK-MEL-2 melanoma): > 100 µM | GI50 (MOLT-4 leukemia): > 100 µM and 36 µM | TGI (MOLT-4 leukemia): > 100 µM | GI50 (RPMI-8226 leukemia): > 100 µM and 41.4 µM | TGI (RPMI-8226 leukemia): > 100 µM | GI50 (SNB-75 CNS): 39.4 µM and 5.4 µM | TGI (SNB-75 CNS): > 100 µM and 43.4 µM | GI50 (SK-OV-3 ovarian): > 100 µM and 27.1 µM | TGI (SK-OV-3 ovarian): > 100 µM | GI50 (TK-10 renal): > 100 µM | TGI (TK-10 renal): > 100 µM | GI50 (NCI-H23 lung): > 100 µM and 46.9 µM | TGI (NCI-H23 lung): > 100 µM | GI50 (HT29 colon): > 100 µM and 25.2 µM | TGI (HT29 colon): > 100 µM and 93.5 µM | TGI (MDA-MB-435): > 100 µM and 15.3 µM

NC(N)=Nc1ccc(Oc2cccc(Nc3ccc(Br)c(C(F)(F)F)c3)c2)cc1
GI50 (M14 melanoma): 1.69 µM | TGI (M14 melanoma): 3.29 µM | GI50 (HCT-15 colon): 2.05 µM | TGI (HCT-15 colon): 4.83 µM | GI50 (CAKI-1 renal): 1.6 µM | TGI (CAKI-1 renal): 3.14 µM | GI50 (SK-MEL-28 melanoma): 1.77 µM | TGI (SK-MEL-28 melanoma): 3.22 µM | GI50 (PC-3 prostate): 1.4 µM | TGI (PC-3 prostate): 2.73 µM | GI50 (NCI-H460 lung): 1.87 µM | TGI (NCI-H460 lung): 3.51 µM | GI50 (SF-268 CNS): 1.68 µM | TGI (SF-268 CNS): 3.45 µM | GI50 (CCRF-CEM leukemia): 1.97 µM | TGI (CCRF-CEM leukemia): 5.5 µM | GI50 (A498 renal): 1.49 µM | TGI (A498 renal): 2.91 µM | GI50 (ACHN renal): 2.69 µM | TGI (ACHN renal): 7.84 µM | GI50 (MALME-3M melanoma): 1.8 µM | TGI (MALME-3M melanoma): 4.04 µM | GI50 (RXF 393 renal): 1.75 µM | TGI (RXF 393 renal): 3.27 µM | GI50 (UO-31 renal): 3.08 µM | TGI (UO-31 renal): 11.5 µM | GI50 (NCI-H522 lung): 1.6 µM | TGI (NCI-H522 lung): 3.35 µM | GI50 (SF-539 CNS): 1.63 µM | TGI (SF-539 CNS): 3.09 µM | GI50 (786-0 renal): 1.6 µM | TGI (786-0 renal): 3.12 µM | GI50 (HOP-92 NSCLC): 0.829 µM | TGI (HOP-92 NSCLC): 2.16 µM | GI50 (IGROV1 ovarian): 1.19 µM | TGI (IGROV1 ovarian): 2.76 µM | GI50 (UACC-62 melanoma): 1.77 µM | TGI (UACC-62 melanoma): 3.28 µM | GI50 (NCI/ADR-RES ovarian): 14.6 µM | TGI (NCI/ADR-RES ovarian): 37.5 µM | GI50 (OVCAR-5 ovarian): 1.63 µM | TGI (OVCAR-5 ovarian): 3.07 µM | GI50 (DU-145 prostate): 1.8 µM | TGI (DU-145 prostate): 3.31 µM | GI50 (RPMI-8226 leukemia): 1.97 µM | TGI (RPMI-8226 leukemia): 4.61 µM | GI50 (SNB-75 CNS): 1.23 µM | TGI (SNB-75 CNS): 2.56 µM | GI50 (SK-OV-3 ovarian): 2.11 µM | TGI (SK-OV-3 ovarian): 5.12 µM | GI50 (TK-10 renal): 1.88 µM | TGI (TK-10 renal): 4.11 µM | GI50 (NCI-H23 lung): 1.67 µM | TGI (NCI-H23 lung): 3.37 µM | GI50 (HT29 colon): 1.56 µM | TGI (HT29 colon): 3.12 µM
